pIC50: −log10 of the molar value.
How the values were obtained:
[1] = molecular target: Cyclin-dependent kinase 2 (Homo sapiens, UniProt P24941); assay: Inhibition of CDK2 in human COV318 cells incubated for overnight in presence of human whole blood by HTRF assay; assay type: cell-based
[2] = Intrinsic clearance in human liver microsomes at 1 uM measured upto 30 mins by LC/MS analysis; assay type: ADME, Microsome; settings: read-out: CLH (converted)
[3] = Cmax in Sprague-Dawley rat at 3 mg/kg, po measured upto 24 hrs by LC-MS/MS analysis; assay type: ADME, organism-based; design: dose 3 mg/kg, time < 24 hrs, route po; settings: in vivo
[4] = AUC in Sprague-Dawley rat at 3 mg/kg, po measured upto 24 hrs by LC-MS/MS analysis; assay type: ADME, organism-based; design: dose 3 mg/kg, time < 24 hrs, route po; settings: in vivo
[5] = Oral bioavailability in Sprague-Dawley rat at 3 mg/kg measured upto 24 hrs by LC-MS/MS analysis; assay type: ADME, organism-based; settings: in vivo
[6] = Hepatic blood flow in Sprague-Dawley rat at 0.5 mg/kg, iv measured upto 24 hrs by LC-MS/MS analysis; assay type: ADME, organism-based; settings: in vivo
[7] = Volume of distribution at steady state in Sprague-Dawley rat at 0.5 mg/kg, iv measured upto 24 hrs by LC-MS/MS analysis; assay type: ADME, organism-based; settings: in vivo, iv, 0.5 mg/kg, 24 h
[8] = Metabolic stability in Sprague-Dawley rat liver microsomes assessed as compound oxidation at 5 uM measured upto 30 mins by HPLC/MS analysis; assay type: ADME, Microsome; settings: 0.5 h
[9] = Metabolic stability in Sprague-Dawley rat liver microsomes assessed as compound demethylation at 5 uM measured upto 30 mins by HPLC/MS analysis; assay type: ADME, Microsome; settings: 0.5 h
[10] = Metabolic stability in Sprague-Dawley rat liver microsomes assessed as remaining parent compound at 5 uM measured upto 30 mins by HPLC/MS analysis; assay type: ADME, Microsome; settings: 0.5 h
[11] = Metabolic stability in Cynomolgus monkey liver microsomes assessed as compound oxidation at 5 uM measured upto 30 mins by HPLC/MS analysis; assay type: ADME, Macaca fascicularis, Microsome; settings: 0.5 h
[12] = Metabolic stability in Cynomolgus monkey liver microsomes assessed as compound demethylation at 5 uM measured upto 30 mins by HPLC/MS analysis; assay type: ADME, Macaca fascicularis, Microsome; settings: 0.5 h
[13] = Metabolic stability in Cynomolgus monkey liver microsomes assessed as remaining parent compound at 5 uM measured upto 30 mins by HPLC/MS analysis; assay type: ADME, Macaca fascicularis, Microsome; settings: 0.5 h
[14] = Metabolic stability in human liver microsomes assessed as compound oxidation at 5 uM measured upto 30 mins by HPLC/MS analysis; assay type: ADME, Microsome
[15] = Metabolic stability in human liver microsomes assessed as compound demethylation at 5 uM measured upto 30 mins by HPLC/MS analysis; assay type: ADME, Microsome; settings: 0.5 h
[16] = Metabolic stability in human liver microsomes assessed as remaining parent compound at 5 uM measured upto 30 mins by HPLC/MS analysis; assay type: ADME, Microsome
[17] = molecular target: Cytochrome P450 3A4 (Homo sapiens, UniProt P08684); assay: Inhibition of CYP3A4 (unknown origin) at >25 uM; assay type: ADME
Sequence of Cytochrome P450 3A4 (P08684 whole entry): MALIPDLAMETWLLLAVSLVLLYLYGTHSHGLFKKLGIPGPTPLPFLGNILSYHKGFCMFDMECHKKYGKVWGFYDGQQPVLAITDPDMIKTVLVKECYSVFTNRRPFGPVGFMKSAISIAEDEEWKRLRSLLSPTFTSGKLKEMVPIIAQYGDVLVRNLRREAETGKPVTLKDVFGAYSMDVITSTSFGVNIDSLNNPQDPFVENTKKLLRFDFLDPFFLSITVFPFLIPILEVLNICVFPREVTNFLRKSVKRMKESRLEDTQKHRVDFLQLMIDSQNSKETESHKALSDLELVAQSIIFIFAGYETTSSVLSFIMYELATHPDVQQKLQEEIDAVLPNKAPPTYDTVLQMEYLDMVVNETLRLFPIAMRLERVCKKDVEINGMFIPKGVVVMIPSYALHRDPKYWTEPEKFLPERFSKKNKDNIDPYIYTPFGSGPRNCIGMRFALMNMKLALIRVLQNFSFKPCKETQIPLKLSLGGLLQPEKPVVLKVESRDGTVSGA

[18] = molecular target: hERG (KCNH2) (Homo sapiens, UniProt Q12809); assay: Displacement of [3H]Dofetilide from human ERG at 10 uM incubated for 24 hrs by filter binding assay relative to control; assay type: toxicity; settings: probe [3H]dofetilide
Sequence of hERG (KCNH2) (Q12809 whole entry): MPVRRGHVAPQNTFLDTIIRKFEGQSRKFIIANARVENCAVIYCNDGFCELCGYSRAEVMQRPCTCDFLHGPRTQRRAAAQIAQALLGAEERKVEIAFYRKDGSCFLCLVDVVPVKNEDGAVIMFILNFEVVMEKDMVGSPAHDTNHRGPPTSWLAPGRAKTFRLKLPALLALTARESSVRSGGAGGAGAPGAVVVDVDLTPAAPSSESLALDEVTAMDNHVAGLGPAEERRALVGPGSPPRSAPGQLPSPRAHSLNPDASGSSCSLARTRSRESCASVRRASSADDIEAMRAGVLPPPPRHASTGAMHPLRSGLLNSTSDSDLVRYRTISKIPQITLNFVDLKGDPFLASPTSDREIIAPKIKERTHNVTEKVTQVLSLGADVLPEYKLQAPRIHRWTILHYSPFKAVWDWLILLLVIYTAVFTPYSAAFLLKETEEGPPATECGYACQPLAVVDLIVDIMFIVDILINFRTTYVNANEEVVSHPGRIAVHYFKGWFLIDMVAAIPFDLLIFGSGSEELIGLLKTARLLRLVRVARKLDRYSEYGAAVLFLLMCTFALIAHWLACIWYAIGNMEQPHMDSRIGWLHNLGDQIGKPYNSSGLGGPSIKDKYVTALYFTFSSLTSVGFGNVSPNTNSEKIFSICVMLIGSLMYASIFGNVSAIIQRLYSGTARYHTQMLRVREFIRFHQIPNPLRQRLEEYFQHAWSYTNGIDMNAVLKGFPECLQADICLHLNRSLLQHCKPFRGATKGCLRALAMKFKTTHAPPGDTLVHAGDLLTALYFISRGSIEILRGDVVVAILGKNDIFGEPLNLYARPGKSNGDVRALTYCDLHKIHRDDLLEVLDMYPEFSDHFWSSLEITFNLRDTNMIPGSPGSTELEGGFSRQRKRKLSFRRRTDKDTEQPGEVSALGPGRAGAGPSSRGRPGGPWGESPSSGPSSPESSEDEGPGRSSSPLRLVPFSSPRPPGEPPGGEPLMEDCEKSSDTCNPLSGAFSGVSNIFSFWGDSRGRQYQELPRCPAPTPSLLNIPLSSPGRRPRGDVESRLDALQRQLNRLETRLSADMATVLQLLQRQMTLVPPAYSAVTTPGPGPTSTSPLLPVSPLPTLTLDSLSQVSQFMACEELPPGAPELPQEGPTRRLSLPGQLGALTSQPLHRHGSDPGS

[19] = molecular target: T1, Cytochrome P450 1A2 (Homo sapiens, UniProt P05177); assay: Inhibition of CYP1A2 (unknown origin) at >25 uM; assay type: ADME
T1 sequence (P05177 whole entry): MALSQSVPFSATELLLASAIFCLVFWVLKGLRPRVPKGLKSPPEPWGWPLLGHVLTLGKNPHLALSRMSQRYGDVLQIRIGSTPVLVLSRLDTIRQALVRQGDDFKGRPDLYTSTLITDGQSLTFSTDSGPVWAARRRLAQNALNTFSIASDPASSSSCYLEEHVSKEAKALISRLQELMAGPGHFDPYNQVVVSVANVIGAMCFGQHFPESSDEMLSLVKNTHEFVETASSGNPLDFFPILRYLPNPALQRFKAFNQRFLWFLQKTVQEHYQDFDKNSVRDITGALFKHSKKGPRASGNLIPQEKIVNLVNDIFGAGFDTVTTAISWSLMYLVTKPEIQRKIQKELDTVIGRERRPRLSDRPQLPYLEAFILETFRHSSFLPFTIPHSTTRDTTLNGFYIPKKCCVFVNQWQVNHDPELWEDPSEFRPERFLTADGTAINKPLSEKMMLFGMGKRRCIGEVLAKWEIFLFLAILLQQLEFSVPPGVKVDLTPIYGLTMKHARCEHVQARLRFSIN

[20] = molecular target: T2, Cytochrome P450 2C8 (Homo sapiens, UniProt P10632); assay: Inhibition of CYP2C8 (unknown origin) at >25 uM; assay type: ADME
T2 sequence (P10632 whole entry): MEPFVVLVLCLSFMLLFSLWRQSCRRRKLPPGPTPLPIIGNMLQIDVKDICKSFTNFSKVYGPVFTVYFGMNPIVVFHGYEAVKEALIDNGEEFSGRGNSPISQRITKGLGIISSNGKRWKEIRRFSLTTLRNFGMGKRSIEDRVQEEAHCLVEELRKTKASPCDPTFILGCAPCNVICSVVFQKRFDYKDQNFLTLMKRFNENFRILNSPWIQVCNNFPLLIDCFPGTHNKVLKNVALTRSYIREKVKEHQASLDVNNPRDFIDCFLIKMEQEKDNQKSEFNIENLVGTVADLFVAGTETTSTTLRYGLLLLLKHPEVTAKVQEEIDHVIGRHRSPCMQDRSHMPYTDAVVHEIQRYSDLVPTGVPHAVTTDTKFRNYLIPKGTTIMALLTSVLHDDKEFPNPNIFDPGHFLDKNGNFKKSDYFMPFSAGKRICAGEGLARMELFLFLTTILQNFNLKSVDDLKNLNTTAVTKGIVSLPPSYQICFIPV

[21] = molecular target: Cytochrome P450 2C19 (Homo sapiens, UniProt P33261); assay: Inhibition of CYP2C19 (unknown origin) at >25 uM; assay type: ADME
Sequence of Cytochrome P450 2C19 (P33261 whole entry): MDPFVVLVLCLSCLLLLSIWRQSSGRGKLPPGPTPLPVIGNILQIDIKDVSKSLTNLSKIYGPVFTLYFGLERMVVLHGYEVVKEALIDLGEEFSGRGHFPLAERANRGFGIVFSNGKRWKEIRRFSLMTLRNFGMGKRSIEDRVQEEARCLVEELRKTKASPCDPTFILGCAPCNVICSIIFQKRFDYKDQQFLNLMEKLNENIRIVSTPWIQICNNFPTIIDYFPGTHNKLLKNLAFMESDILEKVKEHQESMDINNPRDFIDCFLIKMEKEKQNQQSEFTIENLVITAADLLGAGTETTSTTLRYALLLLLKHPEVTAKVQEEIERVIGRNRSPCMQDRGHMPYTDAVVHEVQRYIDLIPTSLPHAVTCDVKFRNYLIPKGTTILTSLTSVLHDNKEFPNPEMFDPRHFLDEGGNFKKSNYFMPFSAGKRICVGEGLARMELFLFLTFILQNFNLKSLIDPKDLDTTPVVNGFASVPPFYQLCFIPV

[22] = molecular target: T3, Cytochrome P450 2B6 (Homo sapiens, UniProt P20813); assay: Inhibition of CYP2B6 (unknown origin) at >25 uM; assay type: ADME
T3 sequence (P20813 whole entry): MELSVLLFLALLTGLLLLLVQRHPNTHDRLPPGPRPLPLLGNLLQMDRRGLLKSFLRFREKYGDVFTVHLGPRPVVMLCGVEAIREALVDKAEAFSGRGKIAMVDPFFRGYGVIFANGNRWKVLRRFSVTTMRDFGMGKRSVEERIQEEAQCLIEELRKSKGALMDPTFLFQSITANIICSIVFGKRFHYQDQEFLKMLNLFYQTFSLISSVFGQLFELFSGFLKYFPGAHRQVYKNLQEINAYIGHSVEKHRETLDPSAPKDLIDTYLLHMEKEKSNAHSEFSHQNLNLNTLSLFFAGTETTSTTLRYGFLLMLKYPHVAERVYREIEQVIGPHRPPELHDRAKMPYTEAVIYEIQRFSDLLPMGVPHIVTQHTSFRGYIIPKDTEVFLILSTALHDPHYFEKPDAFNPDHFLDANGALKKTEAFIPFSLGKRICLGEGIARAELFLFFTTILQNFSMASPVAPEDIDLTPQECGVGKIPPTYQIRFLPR

[23] = molecular target: Cytochrome P450 2C9 (Homo sapiens, UniProt P11712); assay: Inhibition of CYP2C9 (unknown origin) at >25 uM; assay type: ADME
Sequence of Cytochrome P450 2C9 (P11712 whole entry): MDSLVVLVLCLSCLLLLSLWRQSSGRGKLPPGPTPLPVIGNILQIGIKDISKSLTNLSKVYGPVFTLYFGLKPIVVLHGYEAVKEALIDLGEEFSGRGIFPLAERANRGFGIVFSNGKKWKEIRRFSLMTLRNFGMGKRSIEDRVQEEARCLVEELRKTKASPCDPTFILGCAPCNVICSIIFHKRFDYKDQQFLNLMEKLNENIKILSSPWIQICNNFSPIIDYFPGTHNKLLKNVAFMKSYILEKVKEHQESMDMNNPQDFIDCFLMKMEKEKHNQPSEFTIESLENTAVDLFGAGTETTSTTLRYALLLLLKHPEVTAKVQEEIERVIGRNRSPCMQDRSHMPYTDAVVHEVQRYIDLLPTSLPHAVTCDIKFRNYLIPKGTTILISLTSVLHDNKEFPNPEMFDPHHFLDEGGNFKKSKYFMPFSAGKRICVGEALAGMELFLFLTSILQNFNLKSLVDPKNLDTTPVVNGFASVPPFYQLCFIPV

[24] = molecular target: Cytochrome P450 2D6 (Homo sapiens, UniProt P10635); assay: Inhibition of CYP2D6 (unknown origin) at >25 uM; assay type: ADME
Sequence of Cytochrome P450 2D6 (P10635 whole entry): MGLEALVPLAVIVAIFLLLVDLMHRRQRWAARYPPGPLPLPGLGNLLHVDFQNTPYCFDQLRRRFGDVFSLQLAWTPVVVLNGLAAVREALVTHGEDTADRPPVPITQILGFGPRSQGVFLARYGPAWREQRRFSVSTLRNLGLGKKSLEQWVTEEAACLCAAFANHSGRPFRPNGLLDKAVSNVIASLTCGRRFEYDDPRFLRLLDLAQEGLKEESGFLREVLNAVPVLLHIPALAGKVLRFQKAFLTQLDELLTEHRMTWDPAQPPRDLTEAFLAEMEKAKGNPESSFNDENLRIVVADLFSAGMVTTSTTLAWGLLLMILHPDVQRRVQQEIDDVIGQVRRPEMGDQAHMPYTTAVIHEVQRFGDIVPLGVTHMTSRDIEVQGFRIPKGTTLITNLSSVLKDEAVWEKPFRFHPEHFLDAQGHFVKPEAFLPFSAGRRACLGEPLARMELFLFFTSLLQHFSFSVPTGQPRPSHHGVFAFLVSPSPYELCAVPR

[25] = Solubility of compound; assay type: physicochemical
[26] = molecular target: Cyclin-dependent kinase 2/cyclin E1 (Homo sapiens, UniProt P24941); assay: Inhibition of recombinant human N-terminal GST-tagged full-length CDK2/Flag-tagged cyclinE1 expressed in baculovirus expression system using eIF4E-binding protein-1 peptide as substrate incubated for 1 hr in presence of ATP by HTRF assay
[27] = species: Homo sapiens; assay: Selectivity ratio of IC50 for inhibition of CDK1/cyclin B (unknown origin) to IC50 for inhibition recombinant human N-terminal GST-tagged full-length CDK2/Flag-tagged cyclinE1 expressed in baculovirus expression system
[28] = species: Homo sapiens; assay: Selectivity ratio of IC50 for inhibition of CDK4/cyclin D1 (unknown origin) to IC50 for inhibition recombinant human N-terminal GST-tagged full-length CDK2/Flag-tagged cyclinE1 expressed in baculovirus expression system
[29] = species: Homo sapiens; assay: Selectivity ratio of IC50 for inhibition of CDK6/cyclin D1 (unknown origin) to IC50 for inhibition recombinant human N-terminal GST-tagged full-length CDK2/Flag-tagged cyclinE1 expressed in baculovirus expression system
[30] = species: Homo sapiens; assay: Selectivity ratio of IC50 for inhibition of CDK4 (unknown origin) to IC50 for inhibition recombinant human N-terminal GST-tagged full-length CDK2/Flag-tagged cyclinE1 expressed in baculovirus expression system; settings: tested as the 2H-labelled form
[31] = species: Homo sapiens; assay: Selectivity ratio of IC50 for inhibition of CDK1 (unknown origin) to IC50 for inhibition recombinant human N-terminal GST-tagged full-length CDK2/Flag-tagged cyclinE1 expressed in baculovirus expression system; settings: tested as the 2H-labelled form
[32] = species: Homo sapiens; assay: Selectivity ratio of IC50 for inhibition of CDK9 (unknown origin) to IC50 for inhibition recombinant human N-terminal GST-tagged full-length CDK2/Flag-tagged cyclinE1 expressed in baculovirus expression system; settings: tested as the 2H-labelled form
[33] = species: Homo sapiens; assay: Selectivity ratio of IC50 for inhibition of CDK6 (unknown origin) to IC50 for inhibition recombinant human N-terminal GST-tagged full-length CDK2/Flag-tagged cyclinE1 expressed in baculovirus expression system; settings: tested as the 2H-labelled form

## [2H]C([2H])([2H])NS(=O)(=O)c1ccc(Nc2ncc3c(n2)N([C@@H]2CCC[C@@]2(C)O)C(=O)C32CC2)cc1 (relative stereo)
[1]
  pIC50: 6.13
[2]
  predicted hepatic clearance at 1 µM: < 8.33 mL/min/kg
[3]
  Cmax: 752 nM
[4]
  AUC at 24 h: 0.666 µM·h
[5]
  bioavailability: 92%
[6]
  QH: > 100%
[7]
  Vdss: 3.2 L/kg
[8]
  Drug metabolism: 54%
[9]
  Drug metabolism: 23%
[10]
  Stability: 4.4%
[11]
  Drug metabolism: 12%
[12]
  Drug metabolism: 71%
[13]
  Stability: 20%
[14]; liver microsomes, read-out: Drug metabolism
  metabolised at 0.5 h, 5 µM: 5%
[15]
  Drug metabolism: 10%
[16]; liver microsomes, read-out: Stability
  remaining at 0.5 h, 5 µM: 85%
[17]
  inhibition (INH): Active
[18]
  inhibition at 24 h, 10 µM: 16%
[19]
  inhibition (INH): Active
[20]
  inhibition (INH): Active
[21]
  inhibition (INH): Active
[22]
  inhibition (INH): Active
[23]
  inhibition (INH): Active
[24]
  inhibition (INH): Active
[25]
  solubility: > 400 µg/mL

## CNS(=O)(=O)c1ccc(Nc2ncc3c(n2)N([C@@H]2CCC[C@@]2(C)O)C(=O)C32CC2)cc1 (relative stereo)
[26]
  pIC50: 8.92
[27]
  Ratio IC50: 520
[28]
  Ratio IC50: 230
[29]
  Ratio IC50: 88
[1]
  pIC50: 6.46
[2]
  predicted hepatic clearance at 1 µM: 13.3 mL/min/kg
[8]
  Drug metabolism: 74%
[9]
  Drug metabolism: 35%
[10]
  Stability: 0.1%
[11]
  Drug metabolism: 8%
[12]
  Drug metabolism: 98%
[13]
  Stability: 0.1%
[14]; microsomes, 0.5 h, 5 µM
  Drug metabolism: 6%
[15]
  Drug metabolism: 26%
[16]; microsomes, 0.5 h, 5 µM
  Stability: 68%
[30]
  Ratio IC50: 240
[31]
  Ratio IC50: 490
[32]
  Ratio IC50: 2800
[33]
  Ratio IC50: 95
